The test system of test [1] is Proteus sp. Kind of test: In vitro antibacterial spectrum, agar dilution (Table II). It is filed as cell-based. Conditions: 88 isolates, 24-hour, 35° C. The procedure:
(§1) A summary of the in-vitro antibacterial spectrum of l-4-[5-(hydroxymethyl)-2-oxooxazolidin-3-yl]benzenesulfonamide, is shown in Table II. The minimal inhibitory concentrations for the aerobic and facultative anaerobic test isolates representing two gram-positive and eleven gram-negative genera were determined by an agar dilution method. The method is state of the art and is as follows. Mueller-Hinton agar plates are prepared containing two-fold compound concentrations ranging from 128 μg/ml to 1.0 μg/ml for the susceptibility testing of the bacterial strains except Neisseria gonorrhoea and Hemophilus sp. The latter organisms are tested using GC agar containing 1% Bacto-Supplement C (Difco Laboratories, Detroit, Mich.) and are incubated under 6% CO2. The agar plates are inoculated with a 0.001 ml calibrated loopful of bacterial inoculum diluted to contain 5×10^6 colony-forming units (CFU) per ml.

In test [2] the test system is Enterobacter sp. The description is as above. It is filed as cell-based. The conditions noted are these: 41 isolates, 24-hour, 35° C. The procedure:
as §1

The subject of test [3] is Streptococci sp. The test is described as above. Conditions: 14 isolates, 24-hour, 35° C. It is filed as cell-based. The procedure:
as §1

The test system of test [4] is Pseudomonas sp. Described as above. It is filed as cell-based. Conditions: 79 isolates, 24-hour, 35° C. The procedure:
as §1

The subject of test [5] is E. Coli. The description is as above. Conditions: Escherichia coli, 86 isolates, 24-hour, 35° C. It is filed as cell-based. The procedure:
as §1

Test [6] relates to Haemophilus sp. Described as above. It is filed as cell-based. The conditions noted are these: 4 isolates, GC agar, 6% CO2, 24-hour, 35° C. The procedure:
as §1

The subject of test [7] is Neisseria sp. Described as above. It is filed as cell-based. Conditions: 43 isolates, 24-hour, 35° C. The procedure: as §1
For test [8], the system named is Klebsiella sp. The test is described as above. It is filed as cell-based. The conditions noted are these: 50 isolates, 24-hour, 35° C. The procedure: as §1
For test [9], the system named is Shiqella sp. The description is as above. The conditions noted are these: 24 h, read-out: MEAN MIC, Shiqella sp. It is filed as cell-based. The procedure:
as §1

For test [10], the system named is Providencia sp. The test is described as above. It is filed as cell-based. The conditions noted are these: 12 isolates, 24-hour, 35° C. The procedure:
as §1

The subject of test [11] is Salmonella sp. The description is as above. It is filed as cell-based. The conditions noted are these: 6 isolates, 24-hour, 35° C. The procedure: as §1
Test [12] concerns Staphylococci sp. The description is as above. The conditions noted are these: 38 isolates, 24-hour, 35° C. It is filed as cell-based. The procedure: as §1
Test [13] concerns Serratia sp. Described as above. Conditions: 44 isolates, 24-hour, 35° C. It is filed as cell-based. The procedure:
as §1

In test [14] the test system is S. epidermidis. Kind of test: In vitro broth microdilution minimal inhibitory concentration, S. epidermidis (Table I). It is filed as cell-based. The conditions noted are these: Staphylococcus epidermidis; broth microdilution, Mueller-Hinton broth, 24 hour; read-out: MIC (minimal inhibitory concentration), S. epidermidis. An excerpt:
(§2) A list is presented in Table I of analogs which exert an in-vitro antibacterial effect.
On the technique in general: Dilution methods test growth across graded concentrations, often in twofold steps.

In test [15] the test system is E. Coli. Kind of test: In vitro broth microdilution minimal inhibitory concentration, E. Coli (Table I). It is filed as cell-based. The conditions noted are these: Escherichia coli; broth microdilution, Mueller-Hinton broth, 24 hour; read-out: MIC (minimal inhibitory concentration), E. Coli.
Source text: as §2

Test [16] relates to Staphylococcus aureus. As to the kind of experiment: In vivo efficacy in mice infected intraperitoneally with Staphylococcus aureus (Table III). Conditions: 4 h, mice, intraperitoneal infection, 5% hog gastric mucin, oral dosing at infection and four hours post-infection, Reed-Muench, read-out: ED50, S. auerus. The procedure: (§3) In-vivo efficacy determinations were performed by inoculating mice interaperitoneally with cultures of the infecting organism diluted to produce 90-100% mortality in control animals within seven days. The diluents used were trypticase soy broth for E. coli, Proteus sp. and Psuedomonas aeruginosa and 5% hog gastric mucin for Staphylococcus aureus infections. The compounds, dissolved or suspended in 0.25% methocel.cndot.H2 O were administered orally by intubation at the time of infection and again at four hours post-infection. Mortality was recorded daily until test termination and the 50 percent effective dose. ED50, was calculated by the Reed-Muench method (Reed, L. G. and Muench, H., "A simple method of estimating fifty percent end points." American Journal of Hygiene, 27, 1938, 493-497).

The test system of test [17] is E. coli. As to the kind of experiment: In vivo efficacy in mice infected intraperitoneally with E. coli (Table III). The conditions noted are these: Escherichia coli, 4 h; mice, intraperitoneal infection, trypticase soy broth; oral dosing at infection and four hours post-infection; Reed-Muench; read-out: ED50, E. Coli. The procedure:
as §3

The test system of test [18] is Clostridium sp. As to the kind of experiment: In vitro antibacterial spectrum, agar dilution for anaerobic bacteria (Table II). The conditions noted are these: 5 isolates. It is filed as cell-based. The procedure: (§4) The agar dilution method described by A. L. Barry ("The Antimicrobic Susceptibility Test: Principles and Practice", 1976, Lea and Febiger, Philadelphia, Pa.) with compound concentrations of 32 μg/ml to 0.06 μg/ml, was used to determine the inhibitory activity of l-4-[5-(hydroxymethyl)-2-oxooxazolidin-3-yl]benzenesulfonamide for anaerobic bacteria.
In general terms: In agar dilution, organisms are placed on agar that contains the substance at set levels.

Test [19] relates to Gram - Anaerobic Cocci. The description is as above. It is filed as cell-based. Conditions: 7 isolates. The procedure:
as §4

The test system of test [20] is Fusobacterium sp. Described as above. It is filed as cell-based. The conditions noted are these: 4 isolates. The procedure: as §4
Test [21] has as its system Bacteroides sp. The description is as above. It is filed as cell-based. The conditions noted are these: 23 isolates. The procedure:
as §4

This is an account of results in US4461773A, “P-Oxooxazolidinylbenzene compounds as antibacterial agents” (E. I. DuPont de Nemours and Company, priority 1984, dated 1984).

SMILES strings stand for the structures. Converted amounts (≈) assume the structure as drawn. A value given as a limit tells only on which side of the number the result lay.

With `NS(=O)(=O)c1ccc(N2C[C@@H](CO)OC2=O)cc1` [Example 2, l-4-[5-(Hydroxymethyl)-2-oxooxazolidin-3-yl]benzenesulfonamide], the MIC in [1] is 29.1 µg/mL (≈ 107 µM); in test [2], 58.5 µg/mL (≈ 215 µM); in test [3], 7.7 µg/mL (≈ 28.3 µM); in test [4] it was no less than 117 µg/mL; in test [5], 29.8 µg/mL (≈ 109 µM); in test [6], 32 µg/mL (≈ 118 µM). Also, the MIC in test [7] was 12.3 µg/mL (≈ 45.2 µM); in test [8] it was 39.4 µg/mL (≈ 145 µM); in [9], 8 µg/mL (≈ 29.4 µM); in test [10], 41.3 µg/mL (≈ 152 µM); in [11], 32 µg/mL (≈ 118 µM); in test [12], 22.3 µg/mL (≈ 81.9 µM). Besides, the MIC in test [13] is no less than 96 µg/mL; in test [14], 100 µg/mL (≈ 367 µM); in test [15] it was 50 µg/mL (≈ 184 µM); in [18] it was 16.8 µg/mL (≈ 61.7 µM); in [19], 6.1 µg/mL (≈ 22.4 µM); in test [20] it was 0.9 µg/mL (≈ 3.31 µM). This compound displayed an MIC in test [21] of no less than 15.1 µg/mL. Moreover, the ED50 (as a rule, the dose at which the effect has come halfway, by size or by number of responders) in [16] amounted to 17.1 mg/kg; in [17], 13.2 mg/kg.

`CNS(=O)(=O)c1ccc(N2C[C@@H](CO)OC2=O)cc1` [Example 6, l-4-[5-(Hydroxymethyl)-2-oxooxazolidin-3-yl]-N-methylbenzenesulfonamide]: the MIC was 62.5 µg/mL (≈ 218 µM) in test [14] and no less than 200 µg/mL in test [15]. Also, the ED50 is 15.4 mg/kg in test [16] and 39.7 mg/kg in [17].

Regarding `COC[C@@H]1CN(c2ccc(S(C)(=O)=O)cc2)C(=O)O1` [Example 32, l-5-(Methoxymethyl)-3-[4-(methylsulfonyl)phenyl]-2-oxazolidinone], the MIC is 100 µg/mL (≈ 350 µM) in test [14] and greater than 200 µg/mL in test [15]. For the same compound, the ED50 in [16] was determined as 5.1 mg/kg; in [17], 11.8 mg/kg.

As for `CC(=O)NS(=O)(=O)c1ccc(N2CC(CO)OC2=O)cc1` (stereo not drawn) [Example 36, N-[4-[5-(Hydroxymethyl)-2-oxooxazolidin-3-yl]phenylsulfonyl]acetamide], the MIC in [14] and in test [15] was greater than 100 µg/mL each time. The 50% effective dose (ED50) in test [16] was greater than 120 mg/kg; in [17], 56.9 mg/kg.
